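These data come from cells grown in 96-well plates and exposed to compound for 48 hours at five concentrations. At the GI50, growth is halved.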 The source made the active and inactive calls. No stated cut-off is given here; in the data, active = GI50 up to about 1.1 µM and inactive = higher. Where a SMILES comes first, the peptide text is derived from it.
Tests used:
Assay in all cases: NCI-60 cell line screen, 48 h
DLD-1 = system: DLD-1
SK-MEL-5 = system: SK-MEL-5
SK-OV-3 = system: SK-OV-3
BT-549 = system: BT-549
ACHN = system: ACHN
M14 = system: M14
SF-539 = system: SF-539
T47D = system: T47D
TK-10 = system: TK-10
OVCAR-5 = system: OVCAR-5
RPMI-8226 = system: RPMI-8226
786-0 = system: 786-0
SF-268 = system: SF-268
SK-MEL-28 = system: SK-MEL-28
M19-MEL = system: M19-MEL
HOP-92 = system: HOP-92
A498 = system: A498
HCC 2998 = system: HCC 2998
SN12C = system: SN12C
HCT-116 = system: HCT-116

Row | Structure (SMILES) | GI50 (DLD-1) | GI50 (SK-MEL-5) | GI50 (SK-OV-3) | GI50 (BT-549) | GI50 (ACHN) | GI50 (M14) | GI50 (SF-539) | GI50 (T47D) | GI50 (TK-10) | GI50 (OVCAR-5) | GI50 (RPMI-8226) | GI50 (786-0) | GI50 (SF-268) | GI50 (SK-MEL-28) | GI50 (M19-MEL) | GI50 (HOP-92) | GI50 (A498) | GI50 (HCC 2998) | GI50 (SN12C) | GI50 (HCT-116)
1 | COC(=O)C1=C(C(=O)OC)C(C(=O)OC)C(C(=O)OC)C(C(=O)OC)(C(=O)OC)C(C(=O)OC)=C1C(=O)OC (stereo not drawn) | 1.81 µM (inactive) | 17.2 µM (inactive) | 27 µM (inactive) | 18.2 µM (inactive) | 14.7 µM (inactive) | 15.1 µM (inactive) | 17.7 µM (inactive) | 21.9 µM (inactive) | 15.6 µM (inactive) | 19.3 µM (inactive) | 2.24 µM (inactive) | 9.14 µM (inactive) | 19 µM (inactive) | 15.1 µM (inactive) | 12.8 µM (inactive) | 6.89 µM (inactive) | 15.5 µM (inactive) | 16.9 µM (inactive) | 14.3 µM (inactive) | 7.36 µM (inactive)
2 | Cc1cc(=O)n(-c2ccccc2C)c(C)n1 | > 100 µM (inactive) | > 100 µM (inactive) | > 100 µM (inactive) |  | > 100 µM (inactive) | > 100 µM (inactive) | > 100 µM (inactive) |  | > 100 µM (inactive) | > 100 µM (inactive) |  | > 100 µM (inactive) | > 100 µM (inactive) | > 100 µM (inactive) | > 100 µM (inactive) | > 100 µM (inactive) | > 100 µM (inactive) | > 100 µM (inactive) | > 100 µM (inactive) | > 100 µM (inactive)
3 | ClC(Cl)=C(Cl)C1(Cl)CC1COCc1ccccc1 (stereo not drawn) | 38 µM (inactive) | 15.8 µM (inactive) | 39.4 µM (inactive) |  | 39.4 µM (inactive) | 32.4 µM (inactive) | 51.6 µM (inactive) |  | 60.8 µM (inactive) | 32.6 µM (inactive) | 15.8 µM (inactive) | 44.3 µM (inactive) | 43.3 µM (inactive) | 56.2 µM (inactive) | 31.4 µM (inactive) | 15.3 µM (inactive) | 52.4 µM (inactive) | 31.6 µM (inactive) | 39.8 µM (inactive) | 
4 | O=C(N/C(=C\c1cc(Cl)ccc1Cl)c1nc2cc(Cl)ccc2[nH]1)c1ccccc1 | 12.8 µM (inactive) | 13.2 µM (inactive) | 21.5 µM (inactive) |  | 22.5 µM (inactive) | 17.1 µM (inactive) | 20.1 µM (inactive) |  | 3.78 µM (inactive) | 21.2 µM (inactive) | 12.2 µM (inactive) | 24.8 µM (inactive) | 13.8 µM (inactive) | 17.4 µM (inactive) | 16 µM (inactive) | 11.6 µM (inactive) | 21.4 µM (inactive) | 18.2 µM (inactive) | 19.5 µM (inactive) | 10.5 µM (inactive)
5 | CCOC(C)C(/C=N/NC(N)=S)=NNC(N)=S (stereo not drawn) [GLOXAZONE] | > 100 µM (inactive) | 48.3 µM (inactive) | > 100 µM (inactive) |  | > 100 µM (inactive) |  | > 100 µM (inactive) |  | > 100 µM (inactive) | > 100 µM (inactive) | 0.0643 µM (active) | > 100 µM (inactive) | > 100 µM (inactive) | > 74.1 µM (inactive) | > 100 µM (inactive) | 46.1 µM (inactive) | 21.9 µM (inactive) | > 100 µM (inactive) | > 100 µM (inactive) | 
6 | N#CC1CCCCCCCCCCC(=O)N(CCCl)C1=O (stereo not drawn) | > 100 µM (inactive) | > 100 µM (inactive) | > 100 µM (inactive) |  | > 100 µM (inactive) | > 100 µM (inactive) | > 100 µM (inactive) |  | > 100 µM (inactive) | > 100 µM (inactive) | > 100 µM (inactive) | > 100 µM (inactive) | > 100 µM (inactive) | > 100 µM (inactive) | > 100 µM (inactive) | > 100 µM (inactive) | > 100 µM (inactive) | > 100 µM (inactive) | > 100 µM (inactive) | 
7 | COC(=O)C(Cl)=C1CC1 | 23.6 µM (inactive) | 28.5 µM (inactive) | > 100 µM (inactive) |  | 21.5 µM (inactive) | 16.2 µM (inactive) | 27.2 µM (inactive) |  | 36.7 µM (inactive) | > 100 µM (inactive) | 21.8 µM (inactive) | 26.1 µM (inactive) | 92.5 µM (inactive) | 22.9 µM (inactive) | 39.7 µM (inactive) | 13.3 µM (inactive) | > 100 µM (inactive) | 31.7 µM (inactive) | 41.8 µM (inactive) | 
8 | Cn1cnc([N+](=O)[O-])c1Sc1nnc(C(F)(F)F)n1C | 16.4 µM (inactive) | 32.6 µM (inactive) | > 100 µM (inactive) |  | 23.6 µM (inactive) | 17.4 µM (inactive) | 20.5 µM (inactive) |  | 26.4 µM (inactive) | > 100 µM (inactive) | 19.7 µM (inactive) | 39.4 µM (inactive) | 83.6 µM (inactive) | 18.7 µM (inactive) | 18.9 µM (inactive) | 16 µM (inactive) | > 100 µM (inactive) | 75.2 µM (inactive) | 40.2 µM (inactive) | 16.3 µM (inactive)
9 | CC1=NN(C(=O)c2ccccc2O)C(=O)/C1=C/c1cccc(O)c1 | 0.167 µM (active) | 3.2 µM (inactive) | 2.43 µM (inactive) | 0.392 µM (active) | 0.188 µM (active) | 0.446 µM (active) | 0.171 µM (active) | 0.472 µM (active) | 4.76 µM (inactive) | 5.56 µM (inactive) | 0.731 µM (active) | 0.826 µM (active) | 0.637 µM (active) | 50.6 µM (inactive) | 0.596 µM (active) | 0.462 µM (active) | 0.0443 µM (active) | 12.6 µM (inactive) | 45.9 µM (inactive) | 0.244 µM (active)
10 | CC1C(c2ccccc2)N(C)C(c2ccccc2)C(C)C1(O)c1ccccc1 (stereo not drawn) | > 100 µM (inactive) | > 100 µM (inactive) | > 100 µM (inactive) |  | > 100 µM (inactive) | > 100 µM (inactive) | > 100 µM (inactive) |  | > 100 µM (inactive) | > 100 µM (inactive) |  | > 100 µM (inactive) | > 100 µM (inactive) | > 100 µM (inactive) | 47.4 µM (inactive) | 83.9 µM (inactive) | 42.3 µM (inactive) | > 100 µM (inactive) | > 100 µM (inactive) | 26.4 µM (inactive)
11 | O=C(c1nc2ccc(Cl)cc2[nH]c1=O)C(O)c1cccc([N+](=O)[O-])c1 (stereo not drawn) | > 100 µM (inactive) | 48.6 µM (inactive) | > 100 µM (inactive) |  | 64.3 µM (inactive) | > 100 µM (inactive) | > 100 µM (inactive) |  | > 100 µM (inactive) | > 100 µM (inactive) | 9.66 µM (inactive) | > 100 µM (inactive) | 33.3 µM (inactive) | 26.7 µM (inactive) | > 100 µM (inactive) | > 100 µM (inactive) | > 100 µM (inactive) | > 100 µM (inactive) | > 100 µM (inactive) | > 100 µM (inactive)
12 | CCC(C)C1NC(=O)C2CCCN2C(=O)CNC(=O)C(C)NC(=O)C(Cc2ccccc2)NC(=O)C(C(C)C)NC1=O (stereo not drawn) (cyclo(GPIVFA); configuration not given here) | > 100 µM (inactive) | > 100 µM (inactive) | > 100 µM (inactive) |  | > 100 µM (inactive) | > 100 µM (inactive) | > 100 µM (inactive) |  | > 100 µM (inactive) | > 100 µM (inactive) | > 100 µM (inactive) | > 100 µM (inactive) | > 100 µM (inactive) | > 100 µM (inactive) | > 100 µM (inactive) | > 100 µM (inactive) | > 100 µM (inactive) | > 100 µM (inactive) | > 100 µM (inactive) | > 100 µM (inactive)

— ChEMBL document CHEMBL1201862, “PubChem BioAssay data set” (2004)
